Experiments:
TYK2 = TYK2 (Mus musculus (Mouse), UniProt Q9R117); test: Luciferase assay in L929 ISRE cells stimulated with IFN-α; format: cell-based; settings: IFN-α 100 ng/mL; for inhibition at 0.01 µM: 10 nM, read-out: Inhibitory activity % (10 nM); for inhibition at 0.1 µM: 100 nM, read-out: Inhibitory activity % (100 nM); for inhibition at 1 µM: 1000 nM, read-out: Inhibitory activity % (1000 nM); for inhibition at 0.05 µM: 50 nM, read-out: Inhibitory activity % (50 nM); for inhibition at 0.2 µM: 200 nM, read-out: Inhibitory activity % (200 nM)
Protocol: • 1. L929 ISRE cells (5000 cells/well) were seeded on 96-well plates and incubated overnight at room temperature; • 2. The cells were pretreated by adding different concentrations (10 nM, 50 nM, 100 nM, 200 nM or 1000 nM) of the test compounds for 2 hours; • 3. Added IFN-α (100 ng/mL) to stimulate cells for 6 hours; • 4. Removed the upper medium, add PBS (100 μL) and washed, then removed PBS; • 5. Added PLB lysis solution (50 μL) to each well, shook the well for 15 minutes; • 6. Transferred PLB lysis solution (30 μL) to a new 96-well whiteboard, added LAR II reagent (LAR II), then quickly read the […]; • 7. Added Stop & Glo reagent (30 μL), then read the 450 nm OD value using the plate washer. • 8. The final results in Table 3 were the OD value in step 6/OD value in step 7.

TYK2 JH2 = TYK2 JH2 (Homo sapiens (Human), UniProt P29597); test: Competitive binding assay (kinase-tagged phage, qPCR), TYK2 JH2
Protocol: For most assays, kinase-tagged T7 phage strains were prepared in an E. coli host derived from the BL21 strain. E. coli were grown to log-phase and infected with T7 phage and incubated with shaking at 32° C. until lysis. The lysates were centrifuged and filtered to remove cell debris. The remaining kinases were produced in HEK-293 cells and subsequently tagged with DNA for qPCR detection. Streptavidin coated magnetic beads were treated with biotinylated small molecule ligands for 30 minutes at room temperature to generate affinity resins for kinase assays. The liganded beads were blocked with excess biotin and washed with blocking buffer (SeaBlock (Pierce), 1% BSA, 0.05% Tween 20, 1 mM DTT) to remove unbound ligand and to reduce non-specific binding. […] Test compounds were prepared as 111X stocks in 100% DMSO. Dissociation constants (Kds) were determined using an 11-point 3-fold compound dilution series with three DMSO control points. All compounds for Kd measurements are distributed by acoustic transfer (non-contact dispensing) in 100% DMSO. The compounds were then diluted directly into the assays such that the final concentration of DMSO was 0.9%. All reactions performed in polypropylene 384-well plate. Each was a final volume of 0.02 ml. The assay plates were incubated at room temperature with shaking for 1 hour and the affinity beads were washed with wash buffer (1×PBS, 0.05% Tween 20). The beads were then re-suspended in elution buffer (1×PBS, 0.05% Tween 20, 0.5 μM nonbiotinylated affinity ligand) and incubated at room temperature with shaking for 30 minutes. The kinase concentration in the eluates was measured by qPCR.
An 11-point 3-fold serial dilution of each test compound was prepared in 100% DMSO at 100× final test concentration and subsequently diluted to 1× in the assay (final DMSO concentration=1%). Most Kds were determined using a compound top concentration=30,000 nM. If the initial Kd determined was <0.5 nM (the lowest concentration tested), the measurement was repeated with a serial dilution starting at a lower top concentration.
Binding constants (Kds) were calculated with a standard dose-response curve using the Hill equation: […]
The Hill Slope was set to −1.
Curves were fitted using a non-linear least square fit with the Levenberg-Marquardt algorithm.

Chain of TYK2 JH2 (P29597 589-875): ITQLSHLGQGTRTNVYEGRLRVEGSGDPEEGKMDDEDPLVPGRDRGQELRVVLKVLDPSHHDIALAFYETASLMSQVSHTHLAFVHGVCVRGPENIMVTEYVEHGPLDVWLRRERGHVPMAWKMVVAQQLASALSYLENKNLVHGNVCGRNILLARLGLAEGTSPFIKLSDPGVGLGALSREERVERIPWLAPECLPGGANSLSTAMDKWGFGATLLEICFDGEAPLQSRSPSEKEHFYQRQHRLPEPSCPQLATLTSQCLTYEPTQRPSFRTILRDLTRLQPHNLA
Chain of TYK2 (Q9R117 whole entry): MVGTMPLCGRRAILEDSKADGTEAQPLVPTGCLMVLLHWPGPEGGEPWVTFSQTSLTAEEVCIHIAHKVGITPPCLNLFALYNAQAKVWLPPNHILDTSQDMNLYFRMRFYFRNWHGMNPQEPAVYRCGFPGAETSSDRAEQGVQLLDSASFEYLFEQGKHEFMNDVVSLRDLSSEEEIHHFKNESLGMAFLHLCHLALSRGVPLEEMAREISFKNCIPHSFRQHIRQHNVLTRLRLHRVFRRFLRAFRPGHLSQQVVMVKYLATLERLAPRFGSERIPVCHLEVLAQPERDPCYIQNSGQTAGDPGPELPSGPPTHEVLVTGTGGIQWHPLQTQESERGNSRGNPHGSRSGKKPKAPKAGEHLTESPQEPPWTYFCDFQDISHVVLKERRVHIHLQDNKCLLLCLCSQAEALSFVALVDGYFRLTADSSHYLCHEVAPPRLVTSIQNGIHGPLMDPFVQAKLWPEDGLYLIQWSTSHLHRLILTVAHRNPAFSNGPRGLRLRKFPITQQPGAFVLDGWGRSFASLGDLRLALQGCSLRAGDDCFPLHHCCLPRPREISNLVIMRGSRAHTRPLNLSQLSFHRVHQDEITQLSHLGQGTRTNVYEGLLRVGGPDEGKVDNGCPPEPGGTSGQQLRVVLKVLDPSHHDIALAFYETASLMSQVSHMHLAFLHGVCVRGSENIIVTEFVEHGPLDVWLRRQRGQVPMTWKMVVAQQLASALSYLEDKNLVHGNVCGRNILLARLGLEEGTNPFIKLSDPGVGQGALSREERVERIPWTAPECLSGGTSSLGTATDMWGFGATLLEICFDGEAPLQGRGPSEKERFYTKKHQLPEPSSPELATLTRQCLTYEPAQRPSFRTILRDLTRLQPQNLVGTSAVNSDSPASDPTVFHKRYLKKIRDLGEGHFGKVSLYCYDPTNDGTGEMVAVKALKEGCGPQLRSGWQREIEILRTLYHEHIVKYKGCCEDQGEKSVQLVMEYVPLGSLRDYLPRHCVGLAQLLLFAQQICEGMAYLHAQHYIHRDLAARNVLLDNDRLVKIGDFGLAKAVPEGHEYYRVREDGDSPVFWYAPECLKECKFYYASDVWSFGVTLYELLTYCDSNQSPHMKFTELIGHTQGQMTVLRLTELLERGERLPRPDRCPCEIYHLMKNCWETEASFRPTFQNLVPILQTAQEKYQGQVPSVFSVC

Compound | inhibition at 1 µM (TYK2) [%] | other results
CCC(=O)c1cnc(NC(=O)C2CC2)cc1Nc1cccc(-c2nc(P(C)(C)=O)ns2)c1OC [Compound B1, N-(4-((3-(3-(dimethylphosphoryl)-1,2,4-thiadiazol-5-yl)-2-methoxyphenyl)amino)-5-propionylpyridin-2-yl)cyclopropanecarboxamide] | 0 | inhibition at 0.01 µM (TYK2): 0%; inhibition at 0.1 µM (TYK2): 0%
CCC(=O)c1cnc(NC(=O)C2CC2)cc1Nc1cccc(-c2nc(P(C)(C)=O)cs2)c1OC [Compound B6] | 36 | 
CCC(=O)c1cnc(NC(=O)C2CC2)cc1Nc1cccc(-c2cccc(P(C)(C)=O)c2)c1OC [Compound B7] | 46 | 
CCC(=O)c1cnc(NC(=O)C2CC2)cc1Nc1cccc(-c2ccc(P(C)(C)=O)nn2)c1OC [Compound B8] | 33 | 
CCC(=O)c1cnc(NC(=O)C2CC2)cc1Nc1cccc(-c2cc(P(C)(C)=O)nn2C)c1OC [Compound B9] | 40 | 
CCC(=O)c1cnc(NC(=O)C2CC2)cc1Nc1cccc(-c2ccccc2P(C)(C)=O)c1OC [Compound B10] | 50 | 
CCC(=O)c1cnc(NC(=O)C2CC2)cc1Nc1cccc(-c2cc(P(C)(C)=O)n(C)n2)c1F [Compound B12] | 0 | 
CCC(=O)c1cnc(NC(=O)C2CC2)cc1Nc1cccc(-c2cc(P(C)(C)=O)n(C)n2)c1C [Compound B14] | 27 | 
CCC(=O)c1cnc(NC(=O)C2CC2)cc1Nc1cccc(-c2cc(P(C)(C)=O)n(C)n2)c1 [Compound B15] | 45 | 
CCC(=O)c1cnc(NC(=O)C2CC2)cc1Nc1cccc(-c2cc(P(C)(C)=O)n(C3CC3)n2)c1OC [Compound B16] | 55 | inhibition at 0.01 µM (TYK2): 35%; inhibition at 0.1 µM (TYK2): 38%
CCC(=O)c1cnc(NC(=O)C2CC2)cc1Nc1cc(F)cc(-c2cc(P(C)(C)=O)n(C)n2)c1OC [Compound B17] | 67 | inhibition at 0.01 µM (TYK2): 25%; inhibition at 0.1 µM (TYK2): 45%
CCC(=O)c1nnc(NC(=O)C2CC2)cc1Nc1cccc(-c2cc(P(C)(C)=O)n(C)n2)c1OC [Compound B18, N-(5-((3-(5-(dimethylphosphoryl)-1-methyl-1H-pyrazol-3-yl)-2-methoxyphenyl)amino)-6-propionylpyridazin-3-yl)cyclopropanecarboxamide] | 42 | 
CCC(=O)c1cnc(NC(=O)C2CC2)cc1Nc1nccc(-c2cc(P(C)(C)=O)n(C)n2)c1OC [Compound B19, N-(4-((4-(5-(dimethylphosphoryl)-1-methyl-1H-pyrazol-3-yl)-3-methoxypyridin-2-yl)amino)-5-propionylpyridin-2-yl)cyclopropanecarboxamide] | 88 | Kd (TYK2 JH2): 0.075 nM; inhibition at 0.01 µM (TYK2): 41%; inhibition at 0.1 µM (TYK2): 74%
CCC(=O)c1cnc(NC(=O)C2CC2)cc1Nc1cccc(-c2cc(P(C)(C)=O)n(C)n2)c1C#N [Compound B20] | 20 | inhibition at 0.01 µM (TYK2): 7%; inhibition at 0.1 µM (TYK2): 8%
CCC(=O)c1cnc(NC(=O)C2CC2)cc1Nc1cccc(-c2ccc(P(C)(C)=O)nc2)c1OC [Compound B21] | 49 | inhibition at 0.1 µM (TYK2): 6%
CCC(=O)c1cnc(NC(=O)C2CC2)cc1Nc1cc(F)cc(-c2ncc(P(C)(C)=O)cn2)c1OC [Compound B23] | 46 | inhibition at 0.1 µM (TYK2): 8%
CCC(=O)c1cnc(NC(=O)C2CC2)cc1Nc1cccc(-c2cc(P(=O)(CC)CC)n(C)n2)c1OC [Compound B24] | 93 | Kd (TYK2 JH2): 0.03 nM; inhibition at 0.1 µM (TYK2): 31%
CCC(=O)c1nnc(NC(=O)C2CC2)cc1Nc1cc(F)cc(-c2cc(P(C)(C)=O)n(C)n2)c1OC [Compound B25] | 13 | 

Compound | inhibition at 1 µM (TYK2) [%] | other results
CCC(=O)c1cnc(NC(=O)C2CC2)cc1Nc1cccc(-c2cc(P(C)(C)=O)cs2)c1OC [Compound B27] | 38 | 
CCC(=O)c1nnc(NC(=O)C2CC2)cc1Nc1cccc(-c2ccc(P(C)(C)=O)cn2)c1OC [Compound B28] | 35 | 
CCC(=O)c1cnc(NC(=O)C2CC2)cc1Nc1nccc(-c2cc(P(=O)(CC)CC)n(C)n2)c1OC [Compound B29] | 93 | Kd (TYK2 JH2): 0.01 nM
CCC(=O)c1cnc(NC(=O)C2CC2)cc1Nc1cccc(-c2cc(P3(=O)CCCC3)n(C)n2)c1OC [Compound B30] | 75 | 
CCC(=O)c1nnc(NC(=O)C2CC2)cc1Nc1cccc(-c2cc(P(C)(C)=O)n(CC)n2)c1OC [Compound B31] | 26 | 
CCC(=O)c1cnc(NC(=O)C2CC2)cc1Nc1cc(F)cc(-c2cc(P(=O)(CC)CC)n(C)n2)c1OC [Compound B32] | 88 | Kd (TYK2 JH2): 0.025 nM
[2H]C([2H])([2H])n1nc(-c2ccnc(Nc3cc(NC(=O)C4CC4)ncc3C(=O)CC)c2OC)cc1P(=O)(CC)CC [Compound B33] | 86 | Kd (TYK2 JH2): 0.056 nM
[2H]C([2H])([2H])n1nc(-c2cccc(Nc3cc(NC(=O)C4CC4)ncc3C(=O)CC)c2OC)cc1P(=O)(CC)CC [Compound B34] | 87 | Kd (TYK2 JH2): 0.044 nM
[2H]C([2H])([2H])n1nc(-c2ccnc(Nc3cc(NC(=O)C4CC4)ncc3C(=O)CC)c2OC)cc1P(C)(C)=O [Compound B35] | 60 | Kd (TYK2 JH2): 0.025 nM
CCC(=O)c1cnc(NC(=O)C2CC2)cc1Nc1nccc(-c2ncc(P(=O)(CC)CC)cn2)c1OC [Compound B36] | 75 | 
CNC(=O)c1nnc(NC(=O)C2CC2)cc1Nc1cccc(-c2cc(P(C)(C)=O)n(C)n2)c1OC [Compound B39] | 80 | Kd (TYK2 JH2): 0.0064 nM; inhibition at 0.1 µM (TYK2): 34%
CNC(=O)c1nnc(NC(=O)C2CC2)cc1Nc1cccc(-c2ncc(P(C)(C)=O)cn2)c1OC [Compound B40] | 58 | inhibition at 0.1 µM (TYK2): 33%
[2H]C([2H])([2H])NC(=O)c1nnc(NC(=O)C2CC2)cc1Nc1cccc(-c2cc(P(C)(C)=O)n(C)n2)c1OC [Compound B42] | 65 | 
CCP(=O)(CC)c1cc(-c2cccc(Nc3cc(NC(=O)C4CC4)nnc3C(=O)NC)c2OC)nn1C [Compound B43] | 84 | 
CNC(=O)c1nnc(NC(=O)C2CC2)cc1Nc1cccc(-c2cc(P(=O)(C3CC3)C3CC3)n(C)n2)c1OC [Compound B44] | 81 | 
[2H]C([2H])([2H])NC(=O)c1nnc(NC(=O)C2CC2)cc1Nc1cccc(-c2cc(P(=O)(CC)CC)n(C)n2)c1OC [Compound B45] | 95 | inhibition at 0.05 µM (TYK2): 44%; inhibition at 0.2 µM (TYK2): 83%
CCC(=O)c1cnc(NC(=O)C2CC2)cc1Nc1ncnc(-c2cc(P(=O)(C3CC3)C3CC3)n(C)n2)c1OC [Compound B46, N-(4-((6-(5-(dicyclopropylphosphoryl)-1-methyl-1H-pyrazol-3-yl)-5-methoxypyrimidin-4-yl)amino)-5-propionylpyridin-2-yl)cyclopropanecarboxamide] | 96 | inhibition at 0.05 µM (TYK2): 70%; inhibition at 0.2 µM (TYK2): 88%
